Patent publication US20230150929A1, “SELECTIVE NON-CYCLIC NUCLEOTIDE ACTIVATORS FOR THE CAMP SENSOR EPAC1” (The Board of Regents of The University of Texas System, priority 2020, published 2023)

How the values were obtained:
PKA = PKA activation (VASP phosphorylation, western blot) in U2OS-EPAC1 cells; assay type: cell-based; conditions: 100 µM test compound, FIG. 5
Protocol: FIG. 5. PKA activation results of representative newly discovered EPAC1 agonists. U2OS cells stably transfected with EPAC1 were treated with 100 µM of test compounds, cyclic nucleotide EPAC1 agonist 2 or 10 µM of forskolin and rolipram (F/R), cyclic AMP elevating agents, as a positive control. Active, phosphorylated VASP (P-VASP) was visualized using a phospho-specific, anti-VASP antibody. None of the test compounds promoted VASP phosphorylation in cells.
PKA and GPCR Selectivity. To investigate the EPAC selectivity of these EPAC agonists, compounds 25g, 25n and 25q were selected for further PKA activation studies, and the results are shown in FIG. 5. PKA activation was assessed by monitoring phosphorylation state of a downstream PKA effector, vasodilator-stimulated phosphoprotein (VASP).
(§1) SDS-PAGE and Western Blotting. Samples were prepared by mixing equal volumes of cell lysate and 2x SDS sample loading buffer and denaturing for 5 min at 95° C., unless indicated otherwise. Protein samples were separated by SDS-PAGE on 10% (v/v) polyacrylamide gels, for EPAC1 and VASP, or on 12.5% (v/v), for Rap1, and then transferred to nitrocellulose membranes. Membranes were then blocked for 1 h at room temperature in 5% (w/v) non-fat dry milk or 5% (w/v) BSA in Tris-buffered saline containing 0.1% (v/v) Tween 20, followed by an overnight incubation with primary antibody diluted in blocking buffer at 4° C. Subsequently, the membranes were incubated with appropriate horseradish peroxidase-conjugated secondary antibodies for 1 h at room temperature. For signal detection the SuperSignal West Pico PLUS Chemiluminescent Substrate (Thermo Scientific) was used. Images were acquired using the Fusion FX7 camera platform (Vilber). Densitometry was performed with ImageJ.

EPAC1-CNBD = target: T1, EPAC1-CNBD (Homo sapiens, UniProt O95398); test: 8-NBD-cAMP competition binding assay, EPAC1-CNBD; conditions: for IC50 values as EPAC1 binders (in words): summary statement; for RFI (%) (relative fluorescence intensity), Table 4: compound 10 µM, EPAC1-CNBD 0.8 µM, 8-NBD-cAMP 62.5 nM, mean ± SEM, lower RFI = stronger binding
T1 sequence (O95398 169-318 isoform O95398-3): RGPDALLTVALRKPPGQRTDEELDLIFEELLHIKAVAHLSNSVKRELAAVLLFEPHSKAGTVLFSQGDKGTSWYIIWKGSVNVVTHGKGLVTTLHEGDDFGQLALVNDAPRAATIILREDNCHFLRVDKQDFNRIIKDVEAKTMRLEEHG

EPAC1 [1] = target: T2, EPAC1 (Homo sapiens, UniProt O95398); test: Active Rap1 pull-down in U2OS cells stably transfected with EPAC1; assay type: cell-based; design: expressed in transfected cells; host or cells: U2OS cells (from Professor Holger Rehmann, University of Utrecht); conditions: for Rap1 activation in EPAC1 cells: U2OS-EPAC1, 100 µM compound, 10 min, FIG. 7; for selectivity: ability to activate EPAC1 over EPAC2 (ratio of EPAC1 to EPAC2 activation): densitometry of Rap1-GTP immunoblots, U2OS-EPAC1 vs U2OS-EPAC2, FIG. 8
T2 sequence (O95398 1-923): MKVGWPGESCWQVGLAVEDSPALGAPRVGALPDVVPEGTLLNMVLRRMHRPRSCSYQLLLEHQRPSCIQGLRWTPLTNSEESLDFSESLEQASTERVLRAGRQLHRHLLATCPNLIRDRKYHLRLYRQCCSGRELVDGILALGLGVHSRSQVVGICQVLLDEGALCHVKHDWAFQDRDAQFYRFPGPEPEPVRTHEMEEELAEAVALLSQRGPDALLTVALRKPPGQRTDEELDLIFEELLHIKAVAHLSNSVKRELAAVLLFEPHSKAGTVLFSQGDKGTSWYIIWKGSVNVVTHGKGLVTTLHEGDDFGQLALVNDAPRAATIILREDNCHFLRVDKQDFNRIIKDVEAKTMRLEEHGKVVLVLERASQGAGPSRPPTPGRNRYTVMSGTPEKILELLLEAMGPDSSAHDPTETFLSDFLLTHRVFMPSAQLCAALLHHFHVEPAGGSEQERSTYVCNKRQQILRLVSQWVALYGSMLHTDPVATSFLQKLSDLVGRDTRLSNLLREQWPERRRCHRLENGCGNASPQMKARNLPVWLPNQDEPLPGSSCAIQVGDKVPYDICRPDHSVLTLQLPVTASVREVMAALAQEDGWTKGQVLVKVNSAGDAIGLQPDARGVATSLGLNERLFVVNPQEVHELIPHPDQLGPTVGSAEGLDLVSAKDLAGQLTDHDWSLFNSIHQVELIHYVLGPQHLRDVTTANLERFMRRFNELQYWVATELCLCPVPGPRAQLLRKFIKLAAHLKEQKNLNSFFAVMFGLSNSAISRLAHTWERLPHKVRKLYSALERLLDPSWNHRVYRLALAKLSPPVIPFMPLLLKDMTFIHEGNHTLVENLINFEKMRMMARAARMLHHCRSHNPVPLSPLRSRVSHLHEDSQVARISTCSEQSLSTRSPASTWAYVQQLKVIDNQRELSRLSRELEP
Protocol: (§2) Series Expansion and EPAC1 vs EPAC2 Selectivity. GEF assay was used to further screen all newly synthesis analogues at 10 µM, to identify additional activating compounds to expand the series of EPAC1 agonists (FIG. 6). […] Having now identified an expanded exemplary series of compounds as potential EPAC1 activators the ability of 25e, 25f, 25g, 25n and 25u to activate EPAC1 and EPAC2 in cellular Rap1 activation assays (FIG. 7) were compared. For these U2OS cells transfected with either EPAC1 or EPAC2 (FIG. 7) was used. […] Densitometry was carried out on all immunoblots and the ratio of EPAC1 to EPAC2 activation was calculated and presented in a bar graph in FIG. 8.
Active Rap1 Pull-down. U2OS cells (from Professor Holger Rehmann, University of Utrecht) stably transfected with EPAC1 or EPAC2 were cultured in 6-well plates in DMEM, high glucose, supplemented with 10% (v/v) FBS, 1% (v/v) GlutaMAX, 1% (v/v) Penicillin-Streptomycin and 2 mg/l puromycin (to ensure selection of stable transfectants). 80% confluent cells were starved in culture medium with reduced FBS concentration (0.5 %) for 16 h and then stimulated for 10 min with either vehicle, 100 µM of studied compounds, or 50 µM of 2 in case of U2OS-EPAC1 or 100 µM of compound 4 for U2OS-EPAC2. Cells were then rinsed with ice-cold PBS and lysed in 0.5 ml cell lysis buffer (Cell Signaling Technologies) supplemented with 10 mM MgCl2 and 1 mM PMSF, followed by clearing the lysates by centrifugation. Cell lysates were incubated for 1 h (4° C., gentle agitation) with 40 µg GST-RalGDS-RBD immobilized on Glutathione Sepharose 4B (GE Healthcare) to selectively capture GTP-bound Rap1. Later on, the glutathione resin was separated from supernatant by centrifugation, washed three times with cell lysis buffer, then resuspended in 2x SDS sample loading buffer and denatured for 5 min at 95° C.
as §1

EPAC1 [2] = target: T2, EPAC1; test: In vitro GEF screen (EPAC1 activation assay); assay type: biochemical; design: expressed in transfected cells; host or cells: U2OS cells (from Professor Holger Rehmann, University of Utrecht); conditions: 10 µM, FIG. 6
Protocol: FIGS. 6A-B. Identification of compounds including 25g (PW0381) 25q (PW0521) 25n (PW0577), 25u (PW0606), 25e (PW0624) and 25f (PW0625) as EPAC1 activators in an in vitro GEF screen. […] Selected compounds have been highlighted as indicated.
as §2

Row | SMILES | PKA activation (VASP phosphorylation) (PKA) | IC50 values as EPAC1 binders (in words) (EPAC1-CNBD) | Rap1 activation in EPAC1 cells (EPAC1 [1]) | selectivity: ability to activate EPAC1 over EPAC2 (ratio of EPAC1 to EPAC2 activation) (EPAC1 [1]) | EPAC1 activity in GEF assay (EPAC1 [2]) | RFI (%) (relative fluorescence intensity), Table 4 (EPAC1-CNBD)
1 | O=C(COc1ccc2ccccc2c1)NS(=O)(=O)c1ccc([N+](=O)[O-])c(F)c1 [Compound 25e, N-((3-Fluoro-4-nitrophenyl)sulfonyl)-2-(naphthalen-2-yloxy)acetamide] | unable to activate PKA | low micromolar to sub-micromolar | roughly equivalent to the positive control | best selectivity | promote EPAC1 activity more effectively than 25g, 25n and 25q | 
2 | Nc1ccc(S(=O)(=O)NC(=O)COc2ccc3ccccc3c2)cc1F [Compound 25f, N-((4-Amino-3-fluorophenyl)sulfonyl)-2-(naphthalen-2-yloxy)acetamide] | unable to activate PKA | low micromolar to sub-micromolar |  | best selectivity | promote EPAC1 activity more effectively than 25g, 25n and 25q | 81 ± 8
3 | Cc1cc(Nc2ncccc2C(F)(F)F)cc(S(=O)(=O)NC(=O)COc2ccc3ccccc3c2)c1 [Compound 25u, N-((3-Methyl-5-((3-(trifluoromethyl)pyridin-2-yl)amino)phenyl)sulfonyl)-2-(naphthalen-2-yloxy)acetamide] | unable to activate PKA | low micromolar to sub-micromolar | roughly equivalent to the positive control |  | promote EPAC1 activity more effectively than 25g, 25n and 25q | 56 ± 6
